Data set [1] has as its system IGF-1 induced activity of AKT. In words: IGF-1-induced AKT activation. In kind it is cell-based. The following applies: MCF-7 cells, compound 1 hour, then IGF-1 25 ng/ml for 20 min; Figure 5.
The subject of data set [2] is SMO. Conditions: cited from earlier work.
A short description of data set [3]: Biodistribution of 3H-labeled lipopeptide. In kind it is in vivo, mice. Conditions: subcutaneous, topical, peritoneal or oral administration; Supplementary Figure S6.
Data set [4] deals with SMO. In words: Inhibition of SMO function / Hedgehog pathway. In kind it is cell-based.

Peptide text beside a SMILES is read from it. * marks the point of attachment. Palmitoyl = CCCCCCCCCCCCCCCC(=O)*

Regarding `CCCCCCCCCCCCCCCC(=O)N[C@@H](CCCNC(=N)N)C(=O)N[C@@H](CC(N)=O)C(=O)N[C@@H](CC(N)=O)C(=O)N[C@@H](CO)C(=O)N[C@@H](CCCNC(=N)N)C(=O)N[C@@H](CC(C)C)C(=O)NCC(=O)N[C@@H](CC(N)=O)C(=O)NCC(=O)N[C@H](C(=O)N[C@@H](CC(C)C)C(=O)N[C@@H](Cc1ccc(O)cc1)C(N)=O)C(C)C` [Peptide 16] (Palmitoyl-RNNSRLGNGVLY-NH2), in data set [1], the “inhibition of IGF-1 induced activity of AKT” value is listed as “inhibited IGF-1 induced activity of AKT in a dose-dependent manner”.

Consider Ac-(ε-Pal)-KLTYAWHTSFKAL-NH2 [SMOi2-43], for which the “in vitro activity as inhibitor of the Hedgehog pathway” value with SMO [2] is on record as “potent inhibitor”.

As to “Ac-AKFSTHWAYTLK-(ε-Pal), all-D [SMOi2-17]”, the entry into circulation result in data set [3] is on record as “did not enter the circulation”. For the same compound, the “in vitro activity as inhibitor of the Hedgehog pathway” value in the data set with SMO [2] is reported as “subnanomolar range”.

Regarding Ac-LTYAWHTSFKAL-NH2 [SMOi2-9], the “inhibition of SMO function” value in the data set on SMO [4] is “inactive”.

Source of the values: PMC3493468 (Chembiochem : a European journal of chemical biology, 2011).
